Read-outs that look alike come from different tables or passages of the source.
What was measured:
[1] = system: Detroit 551 normal fibroblast cells; test: DIC microscopy of cell morphology, Detroit 551 normal fibroblast cells; format: cell-based
Experimental: (§1) For evaluation of the biological activities of abietic acid on mammalian cells, a time-lapsed recording using video-enhanced DIC microscopy on a variety of cultured cells, including cancerous and non-cancerous cell lines, before and after addition of abietic acid, was performed.
(§2) Abietic acid may be extracted by any conventional methods. In one embodiment of the invention, abietic acid was extracted according to the method described in Luong J H et al., 1999, Electrophoresis. 20(7): 1546–54, and an abietic acid stock solution at a concentration of 150 μg/ml was prepared subsequently.
Detroit 551 normal fibroblast cells were treated without abietic acid or with abietic acid, as described above. The morphology of the normal fibroblast cells was affected when treated with 0.15 and 0.3 μg/ml abietic acid.
(§3) It has been known that the morphology of a cell reflects the healthy condition of the cell. For instance, once a cell, which is normally attached to a substrate with a flat morphology, swells and becomes round in morphology, it means that the condition of the cell turns disadvantageous and the cell may stop the growth and be dead soon.

[2] = system: plasma membrane of the cell; test: electrophysiological experiments and dye-permeability assays; format: cell-based
Experimental: In addition, to further study the mechanisms underlying the swelling phenomenon of a cell, electrophysiological experiments and dye-permeability assays were conducted to measure the permeability of a plasma membrane of the cell.

[3] = system: breast cancer cells such as MCF-7 or T-47D; details: Mellanen et al., 1996; cited from earlier work
[4] = system: MCF-7 breast cancer cell line; test: combination with taxol against MCF-7 cells; format: cell-based; details: in combination with taxol
[5] = system: HeLa cells, a human epithelioid cervical carcinoma cell line; test: video-enhanced DIC microscopy of cell morphology, HeLa cells; format: cell-based
Experimental: as §1, §2
HeLa cells, a human epithelioid cervical carcinoma cell line, were cultured in a standard medium under standard conditions. The HeLa cells were trypsinized and a cell suspension at a concentration of 10^5 cells per milliliter of medium was prepared therefrom. The cell suspension was poured into a 22×22 mm coverglass and treated without abietic acid or with the abietic acid stock solution to achieve a final concentration of 0.3 μg/ml (1/500 dilution), 0.15 μg/ml (1/1000 dilution) or 0.03 μg/ml (1/5000 dilution), respectively.
as §3

[6] = system: Hep-G2 human hepatocellular carcinoma cell line; test: combination with mitomycin C on Hep-G2 cells; format: cell-based; details: in combination with mitomycin C
[7] = system: MCF-7 breast cancer cell line; format: in vivo; details: 0.02667 mg per gram body weight by gastric pipe per two days; for Average maximum diameter: 8 mice
Experimental: Eighty Balb/c-nu/nu female nude mice, supplied by National Laboratory Animal Center in the ROC (Taiwan), four-week old, weight about 18 to 20 g, free of pinworm infection, were housed in the laboratories of the National Yang-Ming University, Taipei, ROC (Taiwan). Clear water and feeds were normally provided. The litters were replaced with new ones per three days. On the other hand, a MCF-7 breast cancer cell line was cultured under standard conditions.
Since the nude mice were five weeks old, the nude mice were intramuscularly injected with 1.7 mg of estradiol valerate at their leg regions. On the other hand, the MCF-7 cells were treated with estradiol for 24 hours, and then trypsinized, centrifuged and recovered in the Minimum Essential Medium (MEM) medium to achieve a concentration of 2×10^7 cell/ml.
After two days following the intramuscular injection of estradiol valerate, the nude mice were subcutaneously injected with 500 μl of the estradiol-treated MCF-7 cells (2×10^7 cell/ml) at their back regions. Once injection, the back regions swelled but became even later.
After three weeks following the injection of the MCF-7 cells, a subcutaneous tumor of 2 mm in a maximum diameter was developed at the backs of the nude mice.
These tumor containing nude mice were divided into two groups, each including 8 mice. One of the two groups were fed normally as a control group. The mice of the other group were fed with abietic acid at a dosage of 0.02667 mg per gram of the body weight of the nude mice by a gastric pipe per two days for a period of more than 12 weeks (experimental group).
The maximum diameter of the tumor on the back of each nude mouse of the control group and the experimental group were recorded, as shown in Table 1 and FIG. 3.

[8] = MTT (mitochondrial activity) assay of cell proliferation; format: cell-based
Excerpt: A MTT (mitochondrial activity) assay was used to determine a cell proliferation.

lipoxygenase pathway = details: Ulusu et al., 2002; read-out: IC50 of inhibition of lipoxygenase pathway; cited from earlier work
prostaglandin E2 = details: lipopolysaccharide-treated macrophages; Fernandez et al., 2001; cited from earlier work
[9] = system: HepG2 cells, a human heptocellular carcinoma cell line; test: DIC microscopy of cell morphology, HepG2 cells; format: cell-based; details: for morphology of HepG2 cells: 24-hour incubation
Experimental: as §1, §2
HepG2 cells, a human heptocellular carcinoma cell line, were cultured in a standard medium under standard conditions. The HepG2 cells were trypsinized and a cell suspension at a concentration of 10^5 cells per milliliter of medium was prepared therefrom. The cell suspension was poured into a 22×22 mm coverglass and treated without abietic acid or with 0.3, 0.15 or 0.03 μg/ml abietic acid, respectively, as described above.
as §3

For CC(C)C1=CC2=CC[C@@H]3[C@](C)(CCC[C@@]3(C)C(=O)O)[C@H]2CC1 [abietic acid], the “morphology of normal fibroblast cells” value ([1]; 0.03 μg/ml) was “normal and flat morphology”, the “morphology of normal fibroblast cells” value ([1]; 0.15 and 0.3 μg/ml) was “affected” and the “concentration that affects the morphology of a normal fibroblast cell” value ([1]; Detroit 551) was “higher than 0.15 μg/ml”. The “morphology and growth of normal fibroblast cells” value ([1]; about 24 hours exposure at the same concentration) was “remained flat in morphology and grew well”, the “permeability of a plasma membrane” value [2] was “direct effect on influx and efflux of chemicals across the cell membrane” and the estrogenic effect [3] was “estrogenic”. The “effect on inhibitory activity of taxol” value [4] was “enhance the inhibitory activity of taxol”, the “morphology of HeLa cells” value ([5]; 0.03, 0.15 and 0.3 μg/ml, 24-hour incubation) was “serious swelling phenomenon” and the “concentration effective to induce a swelling phenomenon” value ([5]; HeLa cell line) was 0.03 µg/mL. For the same molecule, the “growth of cancer cells after swelling” value ([5]; HeLa cells, about 24 hours exposure, relatively low concentration) was “inhibition of the growth and the death of the cancer cells”, the “effect on efficacy of mitomycin C on growth” value [6] was “accelerate the efficacy of mitomycin C” and the “average maximum diameter of the tumor in comparison with mice without treatment” value ([7]; 12 weeks) was “significantly reduced”. The “survival of mice to the end of the period” value ([7]; more than 12 weeks) was “all the mice were alive”, the Average maximum diameter ([7]; week 1) was 0.587 cm and the Average maximum diameter ([7]; week 3) was 0.675 cm. For the same molecule, the Average maximum diameter ([7]; week 6) was 0.700 cm, the Average maximum diameter ([7]; week 9) was 0.787 cm and the Average maximum diameter ([7]; week 12) was 0.800 cm. The “cell proliferation / mitosis” value ([8]; abietic acid by itself) was “inhibit cell mitosis in a dose-dependent manner”, the “effect on killing effects of anti-cancer drugs” value ([8]; in combination with a variety of anti-cancer drugs) was “significantly enhanced the killing effects of a variety of anti-cancer drugs” and the IC50 (lipoxygenase pathway) was 29.5 ± 1.29 µM. The “production of prostaglandin E2” value (prostaglandin E2) was “inhibit the production of the inflammatory mediator, prostaglandin E2”, the “morphology of HepG2 cells” value ([9]; 0.03 μg/ml) was “different morphology” and the “morphology of HepG2 cells” value ([9]; 0.15 and 0.3 μg/ml) was “swelled”. For the same molecule, the “concentration effective to induce a swelling phenomenon” value ([9]; HepG2 cell line) was 0.03 µg/mL and the “growth of cancer cells after swelling” value ([9]; HepG2 cells, about 24 hours exposure, relatively low concentration) was “inhibition of the growth and the death of the cancer cells”.

Reference: patent US7015248B2, “Use of abietic acid and derivatives thereof for inhibiting cancer” (Xiamen Ever-Health Bio-Tech. Co. Ltd, priority 2002, dated 2006)
